Source: patent US12138583B2, “Process for removal of acid gases from a fluid stream with a liquid absorbent comprising a piperazine ring” (BASF SE, priority 2019, dated 2024)
Like-named read-outs stand apart in the source and are kept apart here. Blank lines part the entries; values can stand above or below the compound they belong to.

Assays:
Type in all cases: physicochemical
[1] = Acid gas loading capacity: CO2 loading and stripping experiment; conditions: for CO2 loading after loading / CO2 loading after stripping / Cyclic CO2 capacity: 30 wt.-% amine in water; for CO2 loading after loading: 40° C., ambient pressure, 8 L (STP)/h CO2, about 4 h; for CO2 loading after stripping: stripping at 80° C. with N2 8 L (STP)/h, 60 min; for Cyclic CO2 capacity: difference of loading after loading and after stripping; for Acid gas loading capacities (in words): CO2 and H2S, absorbents 30 wt.-% in water, compared with TBAEE and MDEA
Protocol: (§1) A loading experiment and subsequently a stripping experiment were conducted. A glass condenser, which was operated at 5° C., was attached to a glass cylinder with a thermostated jacket. Condensate obtained in the course of the experiment was returned to the glass cylinder so as to prevent distortion of the test results by partial evaporation of the absorbent.
(§2) The glass cylinder was initially charged with about 100 mL of unladen absorbent (30% by weight of amine in water). To determine the absorption capacity, at ambient pressure and 40° C., 8 L (STP)/h of CO2 or H2S were passed through the absorption liquid via a frit over a period of about 4 h. Subsequently, the loading of CO2 or H2S was determined as follows:
(§3) The determination of H2S was effected by titration with silver nitrate solution. For this purpose, the sample to be analyzed was weighed into an aqueous solution together with about 2% by weight of sodium acetate and about 3% by weight of ammonia. Subsequently, the H2S content was determined by a potentiometric turning point titration by means of silver nitrate. At the turning point, H2S is fully bound as Ag2S. The CO2 content was determined as total inorganic carbon (TOC-V Series Shimadzu).
(§4) The laden solution was stripped by heating an identical apparatus setup to 80° C., introducing the laden absorbent and stripping it by means of an N2 stream (8 L (STP)/h). After 60 min, a sample was taken and the CO2 or H2S loading of the absorbent was determined as described above.
(§5) The difference in the loading at the end of the loading experiment and the loading at the end of the stripping experiment gives the respective cyclic capacity.

[2] = Thermal stability of aqueous amine solutions with and without acid gas loading; conditions: 150° C., 125 h; for Ratio of Degradation Without Acid Gas Loading: closed cylinder, amine concentration by GC before and after; for Ratio of Degradation Without Acid Gas Loading / Ratio of Degradation With Acid Gas Loading: in water: MDEA 40, TBAP-MPIP 30, TBAE-MPIP 25, DEAE-EPIP 30 wt.-%; for Ratio of Degradation With Acid Gas Loading: 20 m^3 (STP)/tsolvent CO2 and 20 m^3 (STP)/tsolvent H2S
Protocol: The thermal stability of TBAP-MPIP (30 wt.-% in water) and TBAE-MPIP (25 wt.-% in water) was compared to both MDEA (40 wt.-% MDEA in water) and DEAE-EPIP (30 wt.-% DEAE-EPIP in water) with and without acid gas loading.
A cylinder (10 mL) was initially charged with the respective solution (8 mL) and the cylinder was closed. […] In the experiments conducted under acid gas loading, the acid gas loading of the solutions was 20 m^3 (STP)/tsolvent of CO2 and 20 m^3 (STP)/tsolvent of H2S. The decomposition level of the amines was calculated from the amine concentration measured by gas chromatography before and after the experiment.

[3] = pKA value by titration with hydrochloric acid; conditions: for pKa: aqueous solution, aqueous solution 0.005 mol amine per liter, HCl 0.1 mol/L; for pKa / Second pKA value (in words): 20° C.; for First pKA value (in words): at relatively low temperatures (20° C.)
[4] = Acid gas loading capacity: H2S loading and stripping experiment; conditions: for H2S loading after loading / H2S loading after stripping / Cyclic H2S capacity: 30 wt.-% amine in water; for H2S loading after loading: 40° C., ambient pressure, 8 L (STP)/h H2S, about 4 h; for H2S loading after stripping: stripping at 80° C. with N2 8 L (STP)/h, 60 min; for Cyclic H2S capacity: difference of loading after loading and after stripping
Protocol: as §1, §2, §3, §4, §5

[5] = Relative volatility: N2 passed through the absorbent, condensate analysed by GC and Karl Fischer titration; conditions: for Amine (in condensate) / Water (in condensate) / Condensate: 30 wt.-% aqueous solution, 50° C., 8 h; for Amine (in condensate) / Water (in condensate): 30 L (STP)/h N2; for Amine (in condensate): GC; for Water (in condensate): Karl Fischer titration; for Condensate: 200 mL, 30 L (STP)/h N2, condenser 5° C.; for Volatility (in words): 30 wt.-% aqueous solutions
Protocol: The volatility of amines TBAP-MPIP and TBAE-MPIP in 30 wt.-% aqueous solutions was compared to that of amines M3ETB, MDEA and TBAEPY in 30% wt.-% aqueous solutions.
A glass condenser, which was operated at 5° C., was attached to a glass cylinder with a thermostated jacket. The glass cylinder was thermostated to 50° C., and 200 mL of the absorbent were introduced for each test. Over an experimental duration of 8 h, 30 L (STP)/h of N2 were passed through the absorbent at ambient pressure. For each amine, the test was conducted three times. The condensate was analyzed by means of GC and Karl Fischer titration.

CO2 loading after loading [1]: 1.48 mol CO2/molamine
CO2 loading after stripping [1]: 0.13 mol CO2/molamine
Cyclic CO2 capacity [1]: 1.35 mol CO2/molamine
Ratio of Degradation Without Acid Gas Loading [2]: 1.00
Ratio of Degradation With Acid Gas Loading [2]: 0.77
pKa ([3]; read-out: pKA 1): 10.3
pKa ([3]; read-out: pKA 2): 8.61
pKa ([3]; read-out: pKA 3): 6.2
H2S loading after loading [4]: 0.98 mol H2S/molamine
H2S loading after stripping [4]: 0.31 mol H2S/molamine
Cyclic H2S capacity [4]: 0.67 mol H2S/molamine
SMILES: CCN(CC)CCN1CCN(CC)CC1 [DEAE-EPIP, 2-(4-ethylpiperazin-1-yl)ethyl-diethylamine, reference compound]
Cyclic H2S capacity (in words) ([4]; 30 wt.-% in water, comparison with TBAP-MPIP and TBAE-MPIP): significantly lower than the capacity of both TBAP-MPIP and TBAE-MPIP

CO2 loading after loading [1]: 0.97 mol CO2/molamine
CO2 loading after stripping [1]: 0.24 mol CO2/molamine
Cyclic CO2 capacity [1]: 0.73 mol CO2/molamine
SMILES: CC(C)(C)NCCOCCO [TBAEE, 2-(2-tert-butylaminoethoxy)ethanol, reference compound]

CO2 loading after loading [1]: 1.41 mol CO2/molamine
CO2 loading after stripping [1]: 0.70 mol CO2/molamine
Cyclic CO2 capacity [1]: 0.71 mol CO2/molamine
Amine (in condensate) [5]: 0.3 wt %
Water (in condensate) [5]: 99.7 wt %
Condensate [5]: 30.3 mL
Volatility (in words) [5]: suitably low volatility
Ratio of Degradation Without Acid Gas Loading [2]: 0.99
Ratio of Degradation With Acid Gas Loading [2]: 0.91
Second pKA value (in words) [3]: close to the pKa value of MDEA
pKa ([3]; read-out: pKA 1): 10.7
pKa ([3]; read-out: pKA 2): 7.68
pKa ([3]; read-out: pKA 3): 5.8
First pKA value (in words) [3]: high first pKA values
H2S loading after loading [4]: 1.48 mol H2S/molamine
H2S loading after stripping [4]: 0.33 mol H2S/molamine
Cyclic H2S capacity [4]: 1.15 mol H2S/molamine
SMILES: CN1CCN(CCCNC(C)(C)C)CC1 [TBAP-MPIP, 3-(4-methylpiperazin-1-yl)propyl-tert-butylamine]
Acid gas loading capacities (in words) [1]: significantly higher acid gas loading capacities than absorbents based on TBAEE and MDEA
Stability in aqueous solutions (in words) [2]: comparable to MDEA, and higher than DEAE-EPIP

The remaining lines, values behind:

SMILES: COCCOCCOCCNC(C)(C)C [M3ETB, (2-(2-(2-tert-butylaminoethoxy)ethoxy)ethyl)methyl ether, reference compound]
Amine (in condensate) [5]: 0.7 wt %
Water (in condensate) [5]: 99.2 wt %
Condensate [5]: 30.1 mL

SMILES: CN1CCN(CCNC(C)(C)C)CC1 [TBAE-MPIP, 2-(4-methylpiperazin-1-yl)ethyl-tert-butylamine]
CO2 loading after loading [1]: 1.46 mol CO2/molamine
CO2 loading after stripping [1]: 0.22 mol CO2/molamine
Cyclic CO2 capacity [1]: 1.24 mol CO2/molamine
Acid gas loading capacities (in words) [1]: significantly higher acid gas loading capacities than absorbents based on TBAEE and MDEA
Amine (in condensate) [5]: 0.7 wt %
Water (in condensate) [5]: 99.3 wt %
Condensate [5]: 29.28 mL
Volatility (in words) [5]: suitably low volatility
Stability in aqueous solutions (in words) [2]: comparable to MDEA, and higher than DEAE-EPIP
Ratio of Degradation Without Acid Gas Loading [2]: 1.00
Ratio of Degradation With Acid Gas Loading [2]: 0.88
Second pKA value (in words) [3]: close to the pKa value of MDEA
pKa ([3]; read-out: pKA 1): 10
pKa ([3]; read-out: pKA 2): 8.82
pKa ([3]; read-out: pKA 3): 5.47
First pKA value (in words) [3]: high first pKA values
H2S loading after loading [4]: 1.62 mol H2S/molamine
H2S loading after stripping [4]: 0.35 mol H2S/molamine
Cyclic H2S capacity [4]: 1.27 mol H2S/molamine

SMILES: CC(C)(C)NCCN1CCCC1=O [TBAEPY, 1-[2-(tert-butylamino)ethyl]pyrrolidin-2-one, reference compound]
Amine (in condensate) [5]: 0.2 wt %
Water (in condensate) [5]: 99.5 wt %
Condensate [5]: 28.8 mL
